Measurements taken from patent US5326774A, “Pharmaceutical preparation of antihypertensive, antianginal, antiarrhythmic and antiglaucomic action” (priority 1992, dated 1994).

What was measured:
β-adrenoceptor = experiment: Partial agonistic activity and non-specific membrane-stabilizing effect
arterial pressure [1] = experiment: Arterial pressure in anesthetized rats, i.v.; type: in vivo, rat; details: for arterial pressure: control 159±9
Experimental: β-adrenoceptor blocking activity of the active principle of the pharmaceutical preparation of the invention was studied. […]. The test substances were injected to several groups of animals (6-10 individuals each) in the graded doses of 0.001, 0.0025, 0.01, 0.025, and 0.1 mg/kg.
From the dosage of […] it gave rise to the lowering of arterial pressure (from 159±9 in the control to 141±11, 127±10 and 123 ±11 mm Hg in the dosages of 0.01, 0.025 and 0.1 mg/kg). From the dosage of 0.0025 mg/kg the compound of the invention gave rise to the dose-related suppression of the isadrin-initiated depressor effect (by 12,63, 82 and 90% in doses of 0.0025, 0.01, 0.025 and 0.1 mg/kg) and, starting from the dosage of […], a positive chronotropic (by 25, 46 and 78% in doses of 0.01, 0.025 said 0.1 mg/kg, respectively) effect.

myocardium necrosis = experiment: Myocardium necrosis in rats with labile coronary occlusion; type: in vivo, rat; details: for Mass and size myocardium (% to the total area of aortic ventricle): control 31.2 ± 1.96; for Area of myocardium necrosis (% to the total area of aortic ventricle): control 33.5 ± 2.5
β1-adrenoceptor [2] = biological target: T1, β1-adrenoceptor (Rattus norvegicus, UniProt P18090); experiment: Oral administration, isadrin-initiated positive chronotropism in rats; type: in vivo
T1 construct: positive chronotropic and depressor effects in the anesthetized rats; from tissue; host or cells: whole living rat (heart rate response to isadrin); endogenous receptor
T1 sequence (P18090 whole entry): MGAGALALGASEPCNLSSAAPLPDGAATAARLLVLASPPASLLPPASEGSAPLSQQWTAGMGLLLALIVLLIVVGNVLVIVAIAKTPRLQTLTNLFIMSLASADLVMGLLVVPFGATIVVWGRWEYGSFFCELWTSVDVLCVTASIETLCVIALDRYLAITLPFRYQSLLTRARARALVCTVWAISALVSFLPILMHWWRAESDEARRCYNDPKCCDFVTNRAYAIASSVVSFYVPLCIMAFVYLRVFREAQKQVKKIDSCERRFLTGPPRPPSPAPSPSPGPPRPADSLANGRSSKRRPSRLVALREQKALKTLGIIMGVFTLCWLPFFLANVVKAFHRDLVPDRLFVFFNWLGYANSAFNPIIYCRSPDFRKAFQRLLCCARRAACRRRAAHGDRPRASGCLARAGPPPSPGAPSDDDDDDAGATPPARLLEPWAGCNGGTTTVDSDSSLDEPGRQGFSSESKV
Experimental: The effects of oral administration of the compound according to the invention as compared with the known drugs on the isadrin-initiated positive chronotropism in rats were tested.

arterial pressure [3] = experiment: Hypotensive activity in anesthetized cats, i.v.; type: in vivo, cat; details: for arterial pressure: control 163±8
β1-adrenoceptor [4] = biological target: T1, β1-adrenoceptor; experiment: Inhibition of isadrin's positive chronotropic effect, i.v., anesthetized rats; type: in vivo

Source text for albino mice: LD50 values were estimated by using the Litchfield-Wilckoxon method.

Cc1noc(COc2ccccc2OCC(O)CNC(C)(C)C)n1.Cl (stereo not shown) [Compound of the invention, 3-methyl-5-[2-(3-tert.butylamino-2-hydroxypropoxy)phenoxymethyl]-1,2,4-oxadiazole hydrochloride]
non-specific membrane-stabilizing effect (β-adrenoceptor): has a non-specific membrane-stabilizing effect
partial agonistic activity (β-adrenoceptor): fails to exhibit a partial agonistic activity
arterial pressure (arterial pressure [1]; 0.01 mg/kg i.v.): 141±11 mm Hg
arterial pressure (arterial pressure [1]; 0.025 mg/kg i.v.): 127±10 mm Hg
arterial pressure (arterial pressure [1]; 0.1 mg/kg i.v.): 123 ±11 mm Hg
minimal effective dose (arterial pressure [1]; Rattus norvegicus, iv, read-out: dosage from which arterial pressure lowered): 0.1 mg/kg
Mass and size myocardium (% to the total area of aortic ventricle) (myocardium necrosis; 1 mg/kg): 31.5%
Area of myocardium necrosis (% to the total area of aortic ventricle) (myocardium necrosis; 1 mg/kg): 30%
aortic ventricle necrosis in mass and size (myocardium necrosis; 5 mg/kg i.v.): decreasing in the aortic ventricle necrosis in mass and size
Mass and size myocardium (% to the total area of aortic ventricle) (myocardium necrosis; 5 mg/kg, P < 0.05): 23.6 ± 3.2%
Area of myocardium necrosis (% to the total area of aortic ventricle) (myocardium necrosis; 5 mg/kg, P < 0.05): 24.3 ± 3.4%
β1-adrenoceptor blocking activity compared with pindolol (β1-adrenoceptor [2]): inferior to pindolol
β1-adrenoceptor blocking activity, superior to labetalol by (β1-adrenoceptor [2]): 35 times
β1-adrenoceptor blocking activity, superior to propranolol by (β1-adrenoceptor [2]): 14.8 times
arterial pressure (arterial pressure [3]; 0.02 mg/kg): 147±12 mm Hg
arterial pressure (arterial pressure [3]; 0.1 mg/kg): 132±5 mm Hg
arterial pressure (arterial pressure [3]; 0.3 mg/kg): 96±7 mm Hg
arterial pressure (arterial pressure [3]; 1.0 mg/kg): 90±7 mm Hg
arterial pressure (arterial pressure [3]; 5.0 mg/kg): 67±7 mm Hg
ED20 (arterial pressure [3]; Felis catus, iv, anesthetized cats, read-out: Dose resulting in lowering of arterial pressure by 20%, ED20): 0.11 ± 0.01 mg/kg
minimal effective dose (arterial pressure [3]; Felis catus, iv, cats, read-out: dosage from which arterial pressure lowered): 0.02 mg/kg
hypotensive effect compared with labetalol (arterial pressure [3]; anesthetized normotensive cats, i.v.): stronger hypotensive effect as compared with labetalol
hypotensive activity, times as high as labetalol (arterial pressure [3]; comparison of ED20): 9 times
hypotensive activity and duration compared with labetalol (arterial pressure [3]; in vivo): superior to labetalol by hypotensive activity and duration of such effect
duration of hypotensive effect (arterial pressure [3]; large dosages): 3 to 4 h
duration of hypotensive effect (arterial pressure [3]; small dosages): 0.083 to 0.5 h
suppression of isadrin positive chronotropic effect (β1-adrenoceptor [4]; 0.01 mg/kg i.v.): 25%
suppression of isadrin positive chronotropic effect (β1-adrenoceptor [4]; 0.025 mg/kg i.v.): 46%
suppression of isadrin positive chronotropic effect (β1-adrenoceptor [4]; 0.1 mg/kg i.v.): 78%
β1-adrenoceptor blocking activity compared with pindolol (β1-adrenoceptor [4]; comparison of ED50, rats i.v.): close to pindolol
β1-adrenoceptor blocking activity, factor over labetalol (β1-adrenoceptor [4]; comparison of ED50, rats i.v.): 23
β1-adrenoceptor blocking activity, factor over oxprenolol (β1-adrenoceptor [4]; comparison of ED50, rats i.v.): 9
β1-adrenoceptor blocking activity, factor over propranolol (β1-adrenoceptor [4]; comparison of ED50, rats i.v.): 12
dosage from which isadrin positive chronotropic effect suppressed (β1-adrenoceptor [4]; i.v.): 0.1 mg/kg
ED50 (β1-adrenoceptor [4]; rat, iv, read-out: Dosage inhibiting isadrin's positive chronotropism by 50% (ED50)): 0.03 ± 0.001 mg/kg
lower toxicity compared with propranolol, oxprenolol and pindolol (albino mice; i.v.): 2-4 times
lower toxicity than propranolol and oxprenolol (albino mice; oral): 2-3 times
